Paper PMC9549030, “Structural basis for specific inhibition of the deubiquitinase UCHL1” (Nature Communications, 2022)
Numbering of substitutions follows the chain as printed. Values joined by “and” are separate entries in the source; they are usually repeats but may differ in a detail not shown here. Equal values may be shown once. Read-outs that look alike come from different tables or passages of the source.

Assays:
UCHL3 L168F = target: T1, UCHL3 L168F (Homo sapiens, UniProt P15374, L168F); test: Ub-Rhodamine (Ubiquitin rhodamine cleavage) assay; format: biochemical
T1 sequence (P15374 1-230 L168F): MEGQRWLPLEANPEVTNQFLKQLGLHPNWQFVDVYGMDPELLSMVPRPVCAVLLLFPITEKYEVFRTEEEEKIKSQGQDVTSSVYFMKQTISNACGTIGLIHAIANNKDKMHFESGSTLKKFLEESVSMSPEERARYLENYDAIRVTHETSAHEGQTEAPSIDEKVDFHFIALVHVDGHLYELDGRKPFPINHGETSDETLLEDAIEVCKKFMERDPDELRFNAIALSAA

UCHL1 [1] = target: T2, UCHL1 (Homo sapiens, UniProt P09936); test: Thermal shift assay; format: binding; conditions: UCHL1 1 µM, 1 h, replicates
T2 sequence (P09936 1-223): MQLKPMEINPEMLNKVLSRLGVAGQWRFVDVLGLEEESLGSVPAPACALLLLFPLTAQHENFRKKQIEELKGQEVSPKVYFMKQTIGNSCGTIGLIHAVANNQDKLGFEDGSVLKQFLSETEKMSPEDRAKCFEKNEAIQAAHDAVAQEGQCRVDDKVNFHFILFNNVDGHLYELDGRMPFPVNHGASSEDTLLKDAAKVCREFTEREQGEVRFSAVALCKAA
Outline: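 Protein at 4 µM (4x stock) in PBS with 5 mM DTT was mixed 1:1 with 4x compound and incubated 1 h. SYPRO Orange was then added. Thermal denaturation was monitored over 20–90 °C in 0.3 °C steps with a 5 s hold before each read.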

HEK293 cells = test: Cellular activity-based protein profiling (in-gel fluorescence); format: cell-based, human; conditions: 0.1 and 1 µM; 24 h
Description: Cells (7 × 10^5) were seeded in six-well plates and cultivated for 48 h. Cells were then incubated in fresh DMEM supplemented with compound or DMSO for 24 h. The cells were washed with ice-cold PBS and harvested in 200 µL ABP lysis buffer as described above. […] Samples were separated by SDS-PAGE and analyzed for fluorescent protein-compound conjugates as described above.

UCHL3 = target: T3, UCHL3 (Homo sapiens, UniProt P15374); test: Ub-Rhodamine (Ubiquitin rhodamine cleavage) assay; format: biochemical; conditions: for normalized UCHL3 activity: independent experiments
T3 sequence (P15374 1-230): T1 sequence (P15374 1-230 L168F) with F168L

UCHL1 in U-87 MG cells = tested on: T4, UCHL1 in U-87 MG cells; test: Cellular Ub-probe (HA-Ub-VS) competition, inhibition of cellular UCHL1; format: cell-based, human; conditions: 1 or 24 h
T4 construct: Western blot analysis of endogenous UCHL1 labeled with HA-Ub-VS after treatment of U-87 MG cells; endogenous in cells; host or cells: U-87 MG
Outline: (§1)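 Cell lysates adjusted to 2 mg/ml total protein, labeled with 1 µM HA-Ub-VS probe for 30 min at 37 °C, then quenched in LDS buffer. Probe labeling of UCHL1 read out by SDS-PAGE and western blot with HRP chemiluminescence.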

UCHL1 in HEK293 cells = tested on: T5, UCHL1 in HEK293 cells; test: as above; format: cell-based, human; conditions: HEK293 cells
T5 construct: Western blot analysis of endogenous UCHL1 labeled with HA-Ub-VS after treatment of HEK293 cells; endogenous in cells; host or cells: HEK293
Outline: as §1

UCHL1 [2] = target: T2, UCHL1; test: kobs/[I] kinetic assay; format: biochemical; design: kobs: unit not given here; conditions: Figure 3c right panel
Description: Reactions were performed in 384 well plates as above. Compound (5 µL of a 4x stock in reaction buffer H supplemented with 2.5 mM TCEP; varying final concentrations ranging from 78 nM to 200 µM) and Ub-Rhodamine 110 (5 µL of a 4x stock in buffer H supplemented with 2.5 mM TCEP; final concentration: 50 nM) were mixed in a 1:1 ratio.

C#CCCCNC(=O)c1ccc(-n2cnc(NC(=O)[C@H]3CCN(C#N)C3)c2)cc1 [GK13S]
IC50 (UCHL3 L168F): 33 ± 11 µM | melting temperature (Tm) of UCHL1 (UCHL1 [1]; compound 1.25 µM): 59.1 and 58.5 | melting temperature (Tm) of UCHL1 (UCHL1 [1]; compound 2.5 µM): 58.8 and 59.1 | melting temperature (Tm) of UCHL1 (UCHL1 [1]; compound 5 µM): 59.1 | labeling of endogenous proteins in intact cells (HEK293 cells): strong signal for a band of ~30 kDa | IC50 (UCHL3; Fig. 6b, catalytic domain, 1 h preincubation, read-out: IC50 (UCHL3)): > 10 µM | normalized UCHL3 activity (UCHL3; GK13S 0.305176 nM, 1 h preincubation): 0.9831 and 1.008 and 0.9131 and 1.009 | normalized UCHL3 activity (UCHL3; GK13S 0.610352 nM, 1 h preincubation): 1.008 and 0.9835 and 0.9698 and 1.0514 | normalized UCHL3 activity (UCHL3; GK13S 1.2207 nM, 1 h preincubation): 0.9936 and 1.008 and 1.001 and 1.003 | normalized UCHL3 activity (UCHL3; GK13S 2.44141 nM, 1 h preincubation): 1.012 and 1.01 and 1.135 and 1.033 | normalized UCHL3 activity (UCHL3; GK13S 4.88281 nM, 1 h preincubation): 1.012 and 1.015 and 0.9843 and 1.023 | normalized UCHL3 activity (UCHL3; GK13S 9.76562 nM, 1 h preincubation): 0.9453 and 1.0198 and 0.9972 and 1.02 | normalized UCHL3 activity (UCHL3; GK13S 19.5312 nM, 1 h preincubation): 1.009 and 0.9664 and 0.9869 and 0.9884 | normalized UCHL3 activity (UCHL3; GK13S 39.0625 nM, 1 h preincubation): 0.985 and 0.9652 and 1.009 and 1.006 | normalized UCHL3 activity (UCHL3; GK13S 78.125 nM, 1 h preincubation): 1.004 and 0.9567 and 0.9151 and 0.8923 | normalized UCHL3 activity (UCHL3; GK13S 156.25 nM, 1 h preincubation): 0.9712 and 0.9475 and 0.9259 and 1.044 | normalized UCHL3 activity (UCHL3; GK13S 312.5 nM, 1 h preincubation): 1.024 and 0.9438 and 0.9427 and 1.0301 | normalized UCHL3 activity (UCHL3; GK13S 625 nM, 1 h preincubation): 1.039 and 0.9614 and 0.9134 and 1.027 | normalized UCHL3 activity (UCHL3; GK13S 1250 nM, 1 h preincubation): 1.008 and 0.9574 and 0.9187 and 1.016 | normalized UCHL3 activity (UCHL3; GK13S 2500 nM, 1 h preincubation): 0.975 and 0.9516 and 0.9328 and 0.9957 | normalized UCHL3 activity (UCHL3; GK13S 5000 nM, 1 h preincubation): 0.9885 and 0.924 and 0.8998 and 0.9921 | normalized UCHL3 activity (UCHL3; GK13S 10000 nM, 1 h preincubation): 0.972 and 0.9338 and 0.9178 and 0.9898 | IC50 (UCHL3; Supplementary Fig. 10c, 3 independent experiments, read-out: IC50 (UCHL3 wt)): > 100 µM | inhibition of cellular UCHL1 (UCHL1 in U-87 MG cells): complete inhibition | inhibition of cellular UCHL1 (UCHL1 in HEK293 cells; 1 µM, 24 h): near complete inhibition | inhibition of cellular UCHL1 (UCHL1 in HEK293 cells; 5 µM, 24 h): Full inhibition | inhibition of cellular UCHL1 (UCHL1 in HEK293 cells; 1 and 5 µM, 1 h and 24 h (Supplementary Fig. 5f)): time- and concentration-dependent inhibition | kobs (UCHL1 [2]; c(GK13S) 0.078125): 0.000109 | kobs (UCHL1 [2]; c(GK13S) 0.15625): 0.000197 | kobs (UCHL1 [2]; c(GK13S) 0.3125): 0.000258 | kobs (UCHL1 [2]; c(GK13S) 0.625): 0.000456 | kobs (UCHL1 [2]; c(GK13S) 1.25): 0.000882 | kobs (UCHL1 [2]; c(GK13S) 2.5): 0.001558
